What was measured:
[1] = target: T1, ATP Dependent Citrate Lyase (Mus musculus, UniProt Q91V92); test: In vitro liver enzyme study: ATP dependent citrate lyase; type: biochemical; conditions: in vitro CF1 liver, 30 min
T1 construct: 10% homogenates of CF1 male mouse liver; from tissue; host or cells: CF1 male mouse liver, 10% homogenate
T1 sequence (Q91V92 1-1091): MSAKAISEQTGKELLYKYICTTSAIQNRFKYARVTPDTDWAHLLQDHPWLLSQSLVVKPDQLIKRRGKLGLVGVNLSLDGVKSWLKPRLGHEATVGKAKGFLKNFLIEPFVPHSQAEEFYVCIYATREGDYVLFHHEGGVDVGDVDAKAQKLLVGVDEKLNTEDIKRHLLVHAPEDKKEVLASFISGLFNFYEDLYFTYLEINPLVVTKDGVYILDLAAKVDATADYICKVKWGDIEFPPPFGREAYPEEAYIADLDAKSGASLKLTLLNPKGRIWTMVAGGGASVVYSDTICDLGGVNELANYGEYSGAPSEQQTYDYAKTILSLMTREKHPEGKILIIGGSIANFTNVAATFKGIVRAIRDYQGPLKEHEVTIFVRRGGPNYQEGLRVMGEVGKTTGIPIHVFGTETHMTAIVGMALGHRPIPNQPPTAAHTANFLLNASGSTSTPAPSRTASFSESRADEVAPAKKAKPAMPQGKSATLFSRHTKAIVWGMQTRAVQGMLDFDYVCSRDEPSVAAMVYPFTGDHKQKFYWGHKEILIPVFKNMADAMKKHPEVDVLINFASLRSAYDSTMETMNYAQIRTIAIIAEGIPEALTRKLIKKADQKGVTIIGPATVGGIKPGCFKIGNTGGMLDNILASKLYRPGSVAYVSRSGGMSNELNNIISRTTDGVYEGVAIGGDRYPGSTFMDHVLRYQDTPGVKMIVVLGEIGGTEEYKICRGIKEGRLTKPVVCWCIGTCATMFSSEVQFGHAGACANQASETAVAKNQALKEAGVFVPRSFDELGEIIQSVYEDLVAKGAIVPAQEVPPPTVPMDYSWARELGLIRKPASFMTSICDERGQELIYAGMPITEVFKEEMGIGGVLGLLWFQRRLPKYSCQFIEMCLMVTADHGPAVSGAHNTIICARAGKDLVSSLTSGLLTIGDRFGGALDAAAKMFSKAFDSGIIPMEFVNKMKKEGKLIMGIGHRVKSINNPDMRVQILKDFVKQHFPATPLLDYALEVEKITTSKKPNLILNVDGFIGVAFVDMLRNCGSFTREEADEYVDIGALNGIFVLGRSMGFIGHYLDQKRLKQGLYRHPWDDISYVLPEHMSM
Procedure: In vitro enzymatic studies were determined using 10% homogenates of CF1 male mouse liver with 50-200 μM of test drugs. In vivo enzymatic studies were determined using 10% homogenates of liver from CF1 male mice obtained after administering the agents for 16 days at a dose ranging from 2.5-20 mg/kg/day intraperitoneally. The liver homogenates for both in vitro and in vivo studies were prepared in 0.25M sucrose and 0.001M (ethylenedinitrilo)tetraacetic acid. Acetyl coenzyme A synthetase and adenosine triphosphate dependent citrate lyase activities were determined spectrophotometrically at 540 nm as the hydroxylamate of acetyl coenzyme A formed after 30 min at 37° C. Mitochondrial citrate exchange was determined by the procedure of Robinson et al [Eur. J. Biochem., 216, 63 (1970)] using ^14 C-sodium bicarbonate (41 mCi/mmol) incorporated into mitochondrial ^14 C-citrate after isolating rat mitochondria (9000 g×10 min) from the homogenates. The exchanges of the ^14 C-citrate were determined after incubating the mitochondrial fraction which was loaded with labeled citrate and test drugs for 10 min. Then the radioactivity was measured in the mitochondrial and supernantant fractions in scintillation fluid and expressed as a percentage. Cholesterol side chain oxidation was determined by the method of Kritchevsky and Tepper [Artherosclerosis, 18, 93 (1973)] using (26-^14 C) cholesterol (50 mCi/mmol) and mitochondria isolated from rat liver homogenates. […] Fatty acid synthetase activity was determined by the method of Brady et al [J. Biol. Chem., 235, 3093 (1960)] using [2-^14 C] malonyl-coenzyme A (37.5 mCi/mmol) which was incorporated into newly synthesized fatty acids that were extracted with ether and counted. Acyl transferase activity was determined with glycerol-3phosphate [L-2-^3 H(N)] […] HCl and counted. Phosphatidate phosphohydrolase activity was measured as the inorganic phosphate released after 30 min from phosphatidic acid by the method of Mavis et al [J. Lipid Res., 19, 467 (1978)]. […]

Ehrlich ascites cells = test: Number of cells in ascites fluid; type: in vivo, mouse
Procedure: CF1 male mice (~30 g) were implanted with 2×10^6 Ehrlich ascites tumor cells, intraperitoneally on Day 0. Compound I was suspended by homogenation in 0.05% polysorbate.80-water and administered intraperitoneally at 10 and 20 mg/kg for 9 days to determine its effectiveness for inhibition of tumor growth. Mice were sacrificed on Day 10, and the ascites fluid was collected from the peritoneal cavity. The volume and ascrit (packed cell volume) were determined for each animal and the percent inhibition of tumor growth was calculated. For the metabolic studies, mice were treated on Days 8 and 9 with 10 mg/kg of Compound I, intraperitoneally. The animal was sacrificed on Day 10 and the ascites fluid harvested. The in vitro metabolic studies were performed at […] final concentration of Compound I.

{Cu[(CH3)3 N.BH2 CO2 ]2.(CH3)3 N.BH2 COOH} [Compound I]
ATP Dependent Citrate Lyase ([1]; 50 μM): 110 ± 6 Percent Control
ATP Dependent Citrate Lyase ([1]; 100 μM): 98 ± 5 Percent Control
ATP Dependent Citrate Lyase ([1]; 200 μM): 105 ± 7 Percent Control
number of cells in the ascites fluid (Ehrlich ascites cells; after drug administration for two days (control 226×10^6 /ml)): 1.02e+08 mL⁻¹
Number of cells × 10^6 /ml ascites fluid (Ehrlich ascites cells; in vivo, 10 mg/kg/day I.P. on Days 8 and 9): 45 ± 4 % Control

— US4550186A, “Binuclear copper (II) carboxylates formed from amine-carboxyboranes” (Duke University, priority 1983, dated 1985)
